Test results reported in patent publication US20250263370A1 (Tay Therapeutics Limited, priority 2022, published 2025).
Where two headings read alike, the source gives them in different places.

Key:
BRD4 BD1 = BRD4 BD1 (Homo sapiens (Human), UniProt O60885); test: NanoBRET bromodomain assay, NanoLuc-BRD4-BD1 fusion in HEK293 cells; format: cell-based; details: top concentration 10 μM
BRD4 BD2 = BRD4 BD2 (Homo sapiens (Human), UniProt O60885); test: NanoBRET bromodomain assay, NanoLuc-BRD4-BD2 fusion in HEK293 cells; details: for IC50: NanoBRET, HEK293 cells, top concentration 10 μM; for Fold selectivity: IC50 for BRD4 BD1 divided by IC50 for BRD4 BD2, qualitative if an IC50 is at the upper limit;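 on all read-outs here: tracer displacement BRET read in transfected cells after 2 h compound exposure at 37 °C, signal in milliBRET units corrected against no-tracer background wells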

IC50 (BRD4 BD1) [µM] | IC50 (BRD4 BD2; BRD4 BD2 (IC50)) [µM] | Fold selectivity (BRD4 BD2) | remaining activity at 10 µM (BRD4 BD2; HEK293, read-out: BRD4 BD2 % Activity Remaining @ 10 uM, 10 uM, (2) = second batch) [%] | IC50 (BRD4 BD2; read-out: BRD4 BD2 (IC50)) [µM] | SMILES
≥ 10 | > 10 | — (Fold ≥0 and ≤2) |  |  | CCNC(=O)c1cc(OC(C)c2ccccc2C#N)c(C(=O)NC)[nH]1 (racemic) [Example 11, 3-(1-(2-cyanophenyl)ethoxy)-N^5-ethyl-N^2-methyl-1H-pyrrole-2,5-dicarboxamide]
≥ 10 | 0.2 to 1 | X (Fold >2 and ≤50) |  |  | CCNC(=O)c1cc(OC(C)c2ccc(F)c(F)c2)c(C(=O)NC)[nH]1 (racemic) [Example 12, 3-(1-(3,4-difluorophenyl)ethoxy)-N5-ethyl-N2-methyl-1H-pyrrole-2,5-dicarboxamide]
≥ 10 | 0.2 to 1 | X (Fold >2 and ≤50) |  |  | CCNC(=O)c1cc(OC(C)c2cccc(F)c2F)c(C(=O)NC)[nH]1 (racemic) [Example 13, 3-(1-(2,3-difluorophenyl)ethoxy)-N^5-ethyl-N^2-methyl-1H-pyrrole-2,5-dicarboxamide]
≥ 10 | 0.2 to 1 | X (Fold >2 and ≤50) |  |  | CCNC(=O)c1cc(OC(C)c2ccc(F)cc2F)c(C(=O)NC)[nH]1 (racemic) [Example 14, 3-(1-(2,4-difluorophenyl)ethoxy)-N^5-ethyl-N^2-methyl-1H-pyrrole-2,5-dicarboxamide]
≥ 10 | > 10 | — (Fold ≥0 and ≤2) |  |  | CCNC(=O)c1cc(OC(c2ccccc2)C2CC2)c(C(=O)NC)[nH]1 (racemic) [Example 63, 3-(cyclopropyl(phenyl)methoxy)-N^5-ethyl-N^2-methyl-1H-pyrrole-2,5-dicarboxamide]
≥ 10 | 1 to 10 | X (Fold >2 and ≤50) |  |  | CCNC(=O)c1cc(OC(CO)c2ccccc2)c(C(=O)NC)[nH]1 (racemic) [Example 73, N^5-ethyl-3-(2-hydroxy-1-phenylethoxy)-N^2-methyl-1H-pyrrole-2,5-dicarboxamide]
≥ 10 | > 10 | — (Fold ≥0 and ≤2) |  |  | CCNC(=O)c1cc(OC(c2ccccc2)C(C)C)c(C(=O)NC)[nH]1 (racemic) [Example 77, N^5-ethyl-N^2-methyl-3-(2-methyl-1-phenylpropoxy)-1H-pyrrole-2,5-dicarboxamide]
≥ 10 | 0.2 to 1 | X (Fold >2 and ≤50) | 30 |  | CCNC(=O)c1cc(OC(C)c2ccccn2)c(C(=O)NC)[nH]1 (racemic) [Example 96, N^5-ethyl-N^2-methyl-3-(1-(pyridin-2-yl)ethoxy)-1H-pyrrole-2,5-dicarboxamide]
≥ 10 | 0.05 to 0.2 | XX (Fold >50 and ≤200) |  |  | CCNC(=O)c1cc(OC(C)c2ccc(Cl)cc2)c(C(=O)NC)[nH]1 (racemic) [Example 122, 3-(1-(4-chlorophenyl)ethoxy)-N^5-ethyl-N^2-methyl-1H-pyrrole-2,5-dicarboxamide]
≥ 10 | 0.2 to 1 | X (Fold >2 and ≤50) |  |  | CCNC(=O)c1cc(OC(C)c2cccc(F)c2)c(C(=O)NC)[nH]1 (racemic) [Example 123, N^5-ethyl-3-(1-(3-fluorophenyl)ethoxy)-N^2-methyl-1H-pyrrole-2,5-dicarboxamide]
≥ 10 | 0.05 to 0.2 | XX (Fold >50 and ≤200) |  |  | CCNC(=O)c1cc(OC(C)c2ccccc2F)c(C(=O)NC)[nH]1 (racemic) [Example 124, N^5-ethyl-3-(1-(2-fluorophenyl)ethoxy)-N^2-methyl-1H-pyrrole-2,5-dicarboxamide]
≥ 10 | 0.2 to 1 | X (Fold >2 and ≤50) |  |  | CCNC(=O)c1cc(OC(C)c2cccc(C(F)(F)F)c2)c(C(=O)NC)[nH]1 (racemic) [Example 125, N^5-ethyl-N^2-methyl-3-(1-(3-(trifluoromethyl)phenyl)ethoxy)-1H-pyrrole-2,5-dicarboxamide]
≥ 10 | 0.2 to 1 | X (Fold >2 and ≤50) |  |  | CCNC(=O)c1cc(OC(CC)c2ccccc2)c(C(=O)NC)[nH]1 (racemic) [Example 126, N^5-ethyl-N^2-methyl-3-(1-phenylpropoxy)-1H-pyrrole-2,5-dicarboxamide]
≥ 10 | 0.05 to 0.2 | XX (Fold >50 and ≤200) |  |  | CCNC(=O)c1cc(OC(C)c2ccc(F)cc2)c(C(=O)NC)[nH]1 (racemic) [Example 127, N^5-ethyl-3-(1-(4-fluorophenyl)ethoxy)-N^2-methyl-1H-pyrrole-2,5-dicarboxamide]
≥ 10 | > 10 | — (Fold ≥0 and ≤2) |  |  | CCNC(=O)c1cc(OC(C)c2ccc(Cl)cc2)c(C(=O)NC)[nH]1 (single isomer, unassigned) [Example 19, 3-(1-(4-chlorophenyl)ethoxy)-N^5-ethyl-N^2-methyl-1H-pyrrole-2,5-dicarboxamide]
≥ 10 | > 10 | — (Fold ≥0 and ≤2) |  |  | CCNC(=O)c1cc(OC(C)c2ccccc2F)c(C(=O)NC)[nH]1 (single isomer, unassigned) [Example 21, N^5-ethyl-3-(1-(2-fluorophenyl)ethoxy)-N^2-methyl-1H-pyrrole-2,5-dicarboxamide]
≥ 10 | < 0.05 | XXX (Fold >200) |  |  | CCNC(=O)c1cc(OC(C)c2ccc(C)cc2)c(C(=O)NC)[nH]1 (single isomer, unassigned) [Example 25, N^5-ethyl-N^2-methyl-3-(1-(p-tolyl)ethoxy)-1H-pyrrole-2,5-dicarboxamide]
≥ 10 | > 10 | — (Fold ≥0 and ≤2) |  |  | CCNC(=O)c1cc(OC(C)c2ccc(C)cc2)c(C(=O)NC)[nH]1 (single isomer, unassigned) [Example 26, N^5-ethyl-N^2-methyl-3-(1-(p-tolyl)ethoxy)-1H-pyrrole-2,5-dicarboxamide]
≥ 10 | 1 to 10 | — (Fold ≥0 and ≤2) |  |  | CNC(=O)c1[nH]c(C(=O)N[C@H]2CC[C@H](O)CC2)cc1OC(C)c1ccc(Cl)cc1F (single isomer, unassigned) [Example 37, 3-(1-(4-chloro-2-fluorophenyl)ethoxy)-N^5-(trans-4-hydroxycyclohexyl)-N^2-methyl-1H-pyrrole-2,5-dicarboxamide]
≥ 10 | > 10 | — (Fold ≥0 and ≤2) |  |  | CCNC(=O)c1cc(OC(C)c2ccc(Cl)cc2F)c(C(=O)NC)[nH]1 (single isomer, unassigned) [Example 42, 3-(1-(4-chloro-2-fluorophenyl)ethoxy)-N^5-ethyl-N^2-methyl-1H-pyrrole-2,5-dicarboxamide]
≥ 10 | > 10 | — (Fold ≥0 and ≤2) |  |  | CCNC(=O)c1cc(OC(C)c2ccc(Br)cc2)c(C(=O)NC)[nH]1 (single isomer, unassigned) [Example 50, 3-(1-(4-bromophenyl)ethoxy)-N^5-ethyl-N^2-methyl-1H-pyrrole-2,5-dicarboxamide]
≥ 10 | > 10 | — (Fold ≥0 and ≤2) |  |  | CCNC(=O)c1cc(OC(C)c2ccc(I)cc2)c(C(=O)NC)[nH]1 (single isomer, unassigned) [Example 52, N^5-ethyl-3-(1-(4-iodophenyl)ethoxy)-N^2-methyl-1H-pyrrole-2,5-dicarboxamide]
≥ 10 | > 10 | — (Fold ≥0 and ≤2) |  |  | CCNC(=O)c1cc(OC(C)c2c(C)cccc2C)c(C(=O)NC)[nH]1 (single isomer, unassigned) [Example 65, 3-(1-(2,6-dimethylphenyl)ethoxy)-N^5-ethyl-N^2-methyl-1H-pyrrole-2,5-dicarboxamide]
≥ 10 | > 10 | — (Fold ≥0 and ≤2) |  |  | CCNC(=O)c1cc(OC(C)c2c(Cl)cccc2Cl)c(C(=O)NC)[nH]1 (single isomer, unassigned) [Example 66, 3-(1-(2,6-dichlorophenyl)ethoxy)-N^5-ethyl-N^2-methyl-1H-pyrrole-2,5-dicarboxamide]
≥ 10 |  | — (Fold ≥0 and ≤2) |  | > 10 | CCNC(=O)c1cc(OC(C)c2c(Cl)cccc2Cl)c(C(=O)NC)[nH]1 (single isomer, unassigned) [Example 67, 3-(1-(2,6-dichlorophenyl)ethoxy)-N^5-ethyl-N^2-methyl-1H-pyrrole-2,5-dicarboxamide]
≥ 10 | 0.05 to 0.2 | XX (Fold >50 and ≤200) |  |  | CCNC(=O)c1cc(OC(C)c2ccc(OC)cc2)c(C(=O)NC)[nH]1 (single isomer, unassigned) [Example 75, N^5-ethyl-3-(1-(4-methoxyphenyl)ethoxy)-N^2-methyl-1H-pyrrole-2,5-dicarboxamide]

SMILES | IC50 (BRD4 BD1) [µM] | IC50 (BRD4 BD2; BRD4 BD2 (IC50)) [µM] | Fold selectivity (BRD4 BD2) | remaining activity at 10 µM (BRD4 BD2; HEK293, read-out: BRD4 BD2 % Activity Remaining @ 10 uM, 10 uM, (2) = second batch) [%] | IC50 (BRD4 BD2; read-out: BRD4 BD2 (IC50)) [µM]
CCNC(=O)c1cc(OC(C)c2ccc3c(c2)COC3)c(C(=O)NC)[nH]1 (racemic) [Example 15, 3-(1-(1,3-dihydroisobenzofuran-5-yl)ethoxy)-M-ethyl-N^2-methyl-1H-pyrrole-2,5-dicarboxamide] | ≥ 10 | 0.2 to 1 | X (Fold >2 and ≤50) |  | 
CCCC(Oc1cc(C(=O)NCC)[nH]c1C(=O)NC)c1ccccc1 (racemic) [Example 16, N^5-ethyl-N^2-methyl-3-(1-phenylbutoxy)-1H-pyrrole-2,5-dicarboxamide] | ≥ 10 | 0.2 to 1 | X (Fold >2 and ≤50) |  | 
CCNC(=O)c1cc(OC(C)c2cccc(C)c2)c(C(=O)NC)[nH]1 (racemic) [Example 17, N^5-ethyl-N^2-methyl-3-(1-(m-tolyl)ethoxy)-1H-pyrrole-2,5-dicarboxamide] | ≥ 10 | 0.05 to 0.2 | XX (Fold >50 and ≤200) |  | 
